Target: Proteasome chymotrypsin-like activity (S26 protein from RPMI8226 cells) (Homo sapiens, UniProt P28074)
Type: biochemical
Conditions: S26 protein from RPMI8226 cell extract 2 ug/well, substrate 20 uM, 37° C., 90 minutes; read-out: Proteasome chymotrypsin-like activity inhibition IC50
Procedure: The abilities to inhibit the proteasome activity of the compounds described in the Examples of the present invention and boronic acid drugs were evaluated as follows.
RPMI8226 cells, which is a multiple myeloma cell line, were cultured and then separated by a centrifuge, and washed twice with phosphate buffered saline (PBS). 20 mM of a tris-HCl (pH 8.0) buffer solution was added to the washed cells, and the cells were disrupted by a homogenizer and centrifuged to obtain S26 protein from the supernatant. Suc-Leu-Leu-Val-Tyr-AMC, for a fluorogenic substrate for the chymotrypsin-like activity of the proteasome, and Z-Leu-Leu-Glu-AMC, for a fluorogenic substrate for the caspase-like activity, were purchased from Calbiochem, EMD Millipore and used. Into each well of a 96-well plate (opaque, black round bottom), 20 ul of the S26 protein (final RPMI8226 cell extract concentration: 2 ug/well), 10 ul of S26 proteasome inhibitor serially diluted from 10 uM (final DMSO concentration: 0.5%), and 20 ul of the fluorogenic substrate for the proteasome chymotrypsin-like or caspase-like activity (final concentration: 20 uM) were added and mixed and allowed to react in a 37° C. incubator for 90 minutes. The fluorescence of the fluorogenic substrate was measured by FlexStation II Fluorometer (Molecular Devices). The fluorescence inhibited by the compound diluted at each concentration was measured as the relative percentage value for the amount obtained from the treatment only with the S26 protein and the fluorogenic substrate. IC50 (inhibitory concentration 50) was expressed in terms of a concentration that inhibits 50% of the maximum fluorescence induced by the fluorogenic substrate.

Proteasome chymotrypsin-like activity (S26 protein from RPMI8226 cells), sequence (P28074 60-263 limits assumed): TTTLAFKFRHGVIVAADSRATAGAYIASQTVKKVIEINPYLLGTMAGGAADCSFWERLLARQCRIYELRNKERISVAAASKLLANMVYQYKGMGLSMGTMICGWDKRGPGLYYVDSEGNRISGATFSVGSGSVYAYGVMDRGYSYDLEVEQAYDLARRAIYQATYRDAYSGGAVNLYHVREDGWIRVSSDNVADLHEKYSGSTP

Row | IC50 | SMILES
1 | < 500 nM | CC(C)C[C@H](NC(=O)C1CC(c2ccccc2)=NO1)B(O)O (stereo partly drawn) [Example 1, ((1R)-3-methyl-1-(3-phenyl-4,5-dihydroisoxazol-5-carboxamido)butyl)boronic acid]
2 | < 1000 nM | CC(C)C[C@H](NC(=O)C1CC(c2cnccn2)=NO1)B(O)O (stereo partly drawn) [Example 2, ((1R)-3-methyl-1-(3-(pyrazin-2-yl)-4,5-dihydroisoxazol-5-carboxamido)butyl)boronic acid]
3 | < 250 nM | CC(C)C[C@H](NC(=O)C1CC(c2cc(Cl)ccc2Cl)=NO1)B(O)O (stereo partly drawn) [Example 3, ((1R)-1-(3-(2,5-dichlorophenyl)-4,5-dihydroisoxazol-5-carboxamido)-3-methylbutyl)boronic acid]
4 | > 1000 nM | CCC1(C(=O)N[C@@H](CC(C)C)B(O)O)CC(c2ccccc2)=NO1 (stereo partly drawn) [Example 4, ((1R)-1-(5-ethyl-3-phenyl-4,5-dihydroisoxazol-5-carboxamido)-3-methylbutyl)boronic acid]
5 | > 1000 nM | CC(C)C[C@H](NC(=O)C1(C)CC(c2ccccc2)=NO1)B(O)O (stereo partly drawn) [Example 5, ((1R)-3-methyl-1-(5-methyl-3-phenyl-4,5-dihydroisoxazol-5-carboxamido)butyl)boronic acid]
6 | > 1000 nM | CCC1(C(=O)N[C@@H](CC(C)C)B(O)O)CC(c2cnccn2)=NO1 (stereo partly drawn) [Example 6, ((1R)-1-(5-ethyl-3-(pyrazin-2-yl)-4,5-dihydroisoxazol-5-carboxamido)-3-methylbutyl)boronic acid]
7 | < 500 nM | CC(C)C[C@H](NC(=O)[C@]1(Cc2ccccc2)CC(c2ccccc2)=NO1)B(O)O [Example 7, ((R)-1-((S)-5-benzyl-3-phenyl-4,5-dihydroisoxazol-5-carboxamido)-3-methylbutyl)boronic acid]
8 | < 250 nM | CC(C)C[C@H](NC(=O)C1CC(Cc2ccccc2)=NO1)B(O)O (stereo partly drawn) [Example 8, ((1R)-1-(3-benzyl-4,5-dihydroisoxazol-5-carboxamido)-3-methylbutyl)boronic acid]
9 | < 500 nM | CC(C)C[C@H](NC(=O)C1CC(C2CCCCC2)=NO1)B(O)O (stereo partly drawn) [Example 9, ((1R)-1-(3-cyclohexyl-4,5-dihydroisoxazol-5-carboxamido)-3-methylbutyl)boronic acid]
10 | < 500 nM | CC(C)C[C@H](NC(=O)C1CC(C2CC2)=NO1)B(O)O (stereo partly drawn) [Example 10, ((1R)-1-(3-cyclopropyl-4,5-dihydroisoxazol-5-carboxamido)-3-methylbutyl)boronic acid]
11 | < 250 nM | CC(C)C[C@H](NC(=O)C1CC(CCc2ccccc2)=NO1)B(O)O (stereo partly drawn) [Example 11, ((1R)-3-methyl-1-(3-penetyl-4,5-dihydroisoxazol-5-carboxamido)butyl)boronic acid]
12 | < 250 nM | CC(C)C[C@H](NC(=O)C1CC(c2nccc3ccccc23)=NO1)B(O)O (stereo partly drawn) [Example 12, ((1R)-1-(3-(isoquinolin-1-yl)-4,5-dihydroisoxazol-5-carboxamido)-3-methylbutyl)boronic acid]
13 | > 1000 nM | CC(C)C[C@H](NC(=O)[C@]1(C(C)C)CC(c2nccc3ccccc23)=NO1)B(O)O [Example 13, ((R)-1-((R)-5-isopropyl-3-(isoquinolin-1-yl)-4,5-dihydroisoxazol-5-carboxamido)-3-methylbutyl)boronic acid]
14 | < 250 nM | CC(C)C[C@H](NC(=O)C1CC(c2cccc(C(C)(C)C)c2)=NO1)B(O)O (stereo partly drawn) [Example 14, ((1R)-1-(3-(3-(tert-butyl)phenyl)-4,5-dihydroisoxazol-5-carboxamido)-3-methylbutyl)boronic acid]
15 | < 250 nM | CC(C)C[C@H](NC(=O)C1CC(c2ccc(C(C)(C)C)cc2)=NO1)B(O)O (stereo partly drawn) [Example 15, ((1R)-1-(3-(4-(tert-butyl)phenyl)-4,5-dihydroisoxazol-5-carboxamido)-3-methylbutyl)boronic acid]
16 | < 250 nM | CC(=O)Nc1ccc(C2=NOC(C(=O)N[C@@H](CC(C)C)B(O)O)C2)cc1 (stereo partly drawn) [Example 16, ((1R)-1-(3-(4-acetamidophenyl)-4,5-dihydroisoxazol-5-carboxamido)-3-methylbutyl)boronic acid]
17 | < 500 nM | CC(C)C[C@H](NC(=O)C1CC(c2ccc3ccccc3c2)=NO1)B(O)O (stereo partly drawn) [Example 17, ((1R)-3-methyl-1-(3-(naphthalen-2-yl)-4,5-dihydroisoxazol-5-carboxamido)butyl)boronic acid]
18 | < 500 nM | CC(C)C[C@H](NC(=O)C1CC(Cc2ccc3ccccc3c2)=NO1)B(O)O (stereo partly drawn) [Example 18, ((1R)-3-methyl-1-(3-(naphthalen-2-ylmethyl)-4,5-dihydroisoxazol-5-carboxamido)butyl)boronic acid]

Row | IC50 | SMILES
19 | < 100 nM | CC(C)C[C@H](NC(=O)C1CC(c2cccc3ccccc23)=NO1)B(O)O (stereo partly drawn) [Example 19, ((1R)-3-methyl-1-(3-(naphthalen-1-yl)-4,5-dihydroisoxazol-5-carboxamido)butyl)boronic acid]
20 | < 250 nM | CC(C)C[C@H](NC(=O)C1CC(c2cccc(-c3ccccc3)c2)=NO1)B(O)O (stereo partly drawn) [Example 20, ((1R)-1-(3-([1,1′-biphenyl]-3-yl)-4,5-dihydroisoxazol-5-carboxamido)-3-methylbutyl)boronic acid]
21 | < 250 nM | CC(C)C[C@H](NC(=O)C1CC(c2ccc3ccccc3n2)=NO1)B(O)O (stereo partly drawn) [Example 21, ((1R)-3-methyl-1-(3-(quinolin-2-yl)-4,5-dihydroisoxazol-5-carboxamido)butyl)boronic acid]
22 | < 250 nM | CC(C)C[C@H](NC(=O)C1CC(c2cc3ccccc3cn2)=NO1)B(O)O (stereo partly drawn) [Example 22, ((1R)-1-(3-(isoquinolin-3-yl)-4,5-dihydroisoxazol-5-carboxamido)-3-methylbutyl)boronic acid]
23 | < 250 nM | CC(C)C[C@H](NC(=O)C1CC(c2ccnc3ccccc23)=NO1)B(O)O (stereo partly drawn) [Example 23, ((1R)-3-methyl-1-(3-(quinolin-4-yl)-4,5-dihydroisoxazol-5-carboxamido)butyl)boronic acid]
24 | < 500 nM | CC(C)C[C@H](NC(=O)[C@]1(Cc2ccccc2)CC(c2cccc(C(C)(C)C)c2)=NO1)B(O)O [Example 24, ((R)-1-((S)-5-benzyl-3-(3-(tert-butyl)phenyl)-4,5-dihydroisoxazol-5-carboxamido)-3-methylbutyl)boronic acid]
25 | < 100 nM | CC(C)C[C@H](NC(=O)C1CC(c2cccc(-c3ccccc3)n2)=NO1)B(O)O (stereo partly drawn) [Example 25, ((1R)-3-methyl-1-(3-(6-phenylpyridin-2-yl)-4,5-dihydroisoxazol-5-carboxamido)butyl)boronic acid]
26 | < 50 nM | CC(C)C[C@H](NC(=O)C1CC(c2ccc(-c3ccccn3)cc2)=NO1)B(O)O (stereo partly drawn) [Example 26, ((1R)-3-methyl-1-(3-(4-(pyridin-2-yl)phenyl)-4,5-dihydroisoxazol-5-carboxamido)butyl)boronic acid]
27 | < 250 nM | CC(C)C[C@H](NC(=O)C1CC(c2ccc(-c3ccccc3)cc2)=NO1)B(O)O (stereo partly drawn) [Example 27, ((1R)-1-(3-([1,1′-biphenyl]-4-yl)-4,5-dihydroisoxazol-5-carboxamido)-3-methylbutyl)boronic acid]
28 | < 250 nM | CC(C)C[C@H](NC(=O)C1CC(c2ccc(-c3cccc(F)c3)cn2)=NO1)B(O)O (stereo partly drawn) [Example 28, ((1R)-1-(3-(5-(3-fluorophenyl)pyridin-2-yl)-4,5-dihydroisoxazol-5-carboxamido)-3-methylbutyl)boronic acid]
29 | < 500 nM | CC(C)C[C@H](NC(=O)C1CC(c2cnc3ccccc3c2)=NO1)B(O)O (stereo partly drawn) [Example 29, ((1R)-3-methyl-1-(3-(quinolin-3-yl)-4,5-dihydroisoxazol-5-carboxamido)butyl)boronic acid]
30 | < 1000 nM | CC(C)C[C@H](NC(=O)C1CC(c2ccc3ncccc3c2)=NO1)B(O)O (stereo partly drawn) [Example 30, ((1R)-3-methyl-1-(3-(quinolin-6-yl)-4,5-dihydroisoxazol-5-carboxamido)butyl)boronic acid]
31 | < 50 nM | CC(C)C[C@H](NC(=O)C1CC(c2ccc(-c3cccnc3)cc2)=NO1)B(O)O (stereo partly drawn) [Example 31, ((1R)-3-methyl-1-(3-(4-(pyridin-3-yl)phenyl)-4,5-dihydroisoxazol-5-carboxamido)butyl)boronic acid]
32 | < 100 nM | CC(C)C[C@H](NC(=O)C1CC(c2ccc(-c3ccccc3)nc2)=NO1)B(O)O (stereo partly drawn) [Example 32, ((1R)-3-methyl-1-(3-(6-phenylpyridin-3-yl)-4,5-dihydroisoxazol-5-carboxamido)butyl)boronic acid]
33 | < 100 nM | CC(C)C[C@H](NC(=O)C1CC(c2cncc(-c3ccccc3)c2)=NO1)B(O)O (stereo partly drawn) [Example 33, ((1R)-3-methyl-1-(3-(5-phenylpyridin-3-yl)-4,5-dihydroisoxazol-5-carboxamido)butyl)boronic acid]
34 | < 100 nM | CC(C)C[C@H](NC(=O)C1CC(c2cccc(-c3ccccn3)c2)=NO1)B(O)O (stereo partly drawn) [Example 34, ((1R)-3-methyl-1-(3-(3-(pyridin-2-yl)phenyl)-4,5-dihydroisoxazol-5-carboxamido)butyl)boronic acid]
35 | < 250 nM | CC(C)C[C@H](NC(=O)C1(Cc2ccccc2)CC(c2cccc(-c3nccc4ccccc34)c2)=NO1)B(O)O (stereo partly drawn) [Example 36, ((1R)-1-(5-benzyl-3-(3-(isoquinolin-1-yl)phenyl)-4,5-dihydroisoxazol-5-carboxamido)-3-methylbutyl)boronic acid]

Source: patent publication US12570675B2, “Boronic acid compounds” (LG CHEM, LTD., priority 2020, dated 2026)
